# Results from publication PMC5298231, “The Malaria Parasite's Lactate Transporter PfFNT Is the Target of Antiplasmodial Compounds Identified in Whole Cell Phenotypic Screens” (PLoS Pathogens, 2017).
# Peptide text beside a SMILES is read from it.
# Tested on: erythrocytes infected with 3D7 trophozoites
# Format: cell-based, Plasmodium falciparum
# Conditions: sheet Ratio; for Ratio of metabolite abundance, Exp1_1hr: Exp1, 1hr; for Ratio of metabolite abundance, Exp1_3hr: Exp1, 3hr; for Ratio of metabolite abundance, Exp1_6hr: Exp1, 6hr; for Ratio of metabolite abundance, Exp2_1hr: Exp2, 1hr; for Ratio of metabolite abundance, Exp2_3hr: Exp2, 3hr; for Ratio of metabolite abundance, Exp2_6hr: Exp2, 6hr; for Ratio of metabolite abundance, Exp3_1hr: Exp3, 1hr; for Ratio of metabolite abundance, Exp3_3hr: Exp3, 3hr; for Ratio of metabolite abundance, Exp3_6hr: Exp3, 6hr
SMILES,"Ratio of metabolite abundance, Exp1_1hr","Ratio of metabolite abundance, Exp1_3hr","Ratio of metabolite abundance, Exp1_6hr","Ratio of metabolite abundance, Exp2_1hr","Ratio of metabolite abundance, Exp2_3hr","Ratio of metabolite abundance, Exp2_6hr","Ratio of metabolite abundance, Exp3_1hr","Ratio of metabolite abundance, Exp3_3hr","Ratio of metabolite abundance, Exp3_6hr"
NC(=O)c1ccc[n+]([C@@H]2O[C@H](COP(=O)([O-])OP(=O)(O)OC[C@H]3O[C@@H](n4cnc5c(N)ncnc54)[C@H](O)[C@@H]3O)[C@@H](O)[C@H]2O)c1 [NAD+],1.033,0.9084,1.09,0.9571,1.088,1.117,1.081,1.082,1.084
NC(=O)C1=CN([C@@H]2O[C@H](COP(=O)(O)OP(=O)(O)OC[C@H]3O[C@@H](n4cnc5c(N)ncnc54)[C@H](O)[C@@H]3O)[C@@H](O)[C@H]2O)C=CC1 [NADH],0.4095,0.2777,0.1491,0.4801,0.5784,0.1509,0.301,0.1742,0.1364
NC(=O)c1ccc[n+]([C@@H]2O[C@H](COP(=O)([O-])OP(=O)(O)OC[C@H]3O[C@@H](n4cnc5c(N)ncnc54)[C@H](OP(=O)(O)O)[C@@H]3O)[C@@H](O)[C@H]2O)c1 [NADP+],0.7131,0.6937,0.7662,1.042,0.9729,0.8073,0.7811,0.7388,0.8166
O=C(O)c1cc(=O)[nH]c(=O)[nH]1 [Orotate],0.5025,0.4692,0.3315,0.4622,0.4131,0.4313,0.3435,0.2448,0.2332
C[C@H](NC(=O)[C@@H]1CCCN1)C(=O)N[C@@H](CCC(=O)O)C(=O)N[C@@H](Cc1ccccc1)C(=O)O [PAEF] (H-PAEF-OH),0.6152,0.1924,1.448,0.9598,0.5962,1.961,0.6833,0.575,1.883
CC(C)[C@H](NC(=O)[C@H](C)NC(=O)[C@@H]1CCCN1)C(=O)N[C@@H](Cc1c[nH]cn1)C(=O)O [PAVH],0.3897,0.1614,0.8308,0.6106,0.3696,0.9246,0.514,0.3038,1.108
CC(C)[C@H](NC(=O)[C@H](C)NC(=O)[C@H](CC(=O)O)NC(=O)[C@@H]1CCCN1)C(=O)O [PDAV] (H-PDAV-OH),1.025,1.041,2.029,1.45,1.498,2.552,1.376,1.38,2.341
O=C(O)C[C@H](NC(=O)[C@@H]1CCCN1)C(=O)O [PD] (H-Pro-Asp-OH),1.093,0.9772,1.538,1.264,1.209,2.9187,1.287,1.3146,2.682
O=C(O)CC[C@H](NC(=O)[C@H](CCC(=O)O)NC(=O)[C@@H]1CCCN1)C(=O)O [PEE] (H-Pro-Glu-Glu-OH),1.088,0.6949,2.228,1.338,0.8845,1.822,1.136,1.044,2.15
O=C(O)CC[C@H](NC(=O)[C@@H]1CCCN1)C(=O)O [PE] (H-Pro-Glu-OH),2.339,1.989,3.207,2.25,1.648,3.078,2.352,2.042,3.469
